{"source": "patent US20220378763A1", "about": "“COMPOUND FOR TREATMENT OF ACUTE INFLAMMATION IN THE MYOCARDIUM” (CALPROTECT AB, priority 2019, published 2022)", "system": "α-MHC-mCherry mice with MI", "assay": "Efferocytosis of mCherry+ cardiomyocytes by heart macrophages, 7 days post-MI", "format": "in vivo, mouse", "settings": "treatment for 7 days post-MI", "source_text": "All mouse studies were approved by the Animal Research Ethics Committee of Lund University. C57BL/6NRJ mice were purchased from Janvier Labs, C57BL/6-Tg(Nr4a1-EGFP/cre)820Khog/J (Nur77-EGFP) and B6;D2-Tg(Myh6*-mCherry)2Mik/J (α-MHC-mCherry) were purchased from the Jackson Laboratory. Nur77-EGFP mice express the fluorescent EGFP protein under the Nur77 promoter. α-MHC-mCherry mice express the red fluorescent Cherry protein under the mouse alpha myosin heavy-chain promoter in cardiomyocytes. We used 8-12 weeks old female mice in all experiments. MI was induced by left coronary artery ligation using a minimal thoracotomy model. Mice were initially anesthetized with 4% isoflurane and the surgical procedure was performed under 1.7% isoflurane. Following heart exposure outside of the thorax through a small thoracic incision, the left coronary artery was permanently ligated using silk 6.0 suture, the heart repositioned, and the thorax was closed with 6.0 prolene monofilament suture.\nIn an attempt to explain these intriguing results, we assessed the effects of the extended treatment on the presence of myeloid cells in blood, spleen, bone marrow and myocardium, with particular emphasis on cellular populations involved in myocardial repair. The cellular infiltration was analysed by flow cytometry on day 7, at the peak of the reparatory post-MI period. […]", "data": [{"smiles": "COc1ncc(S(=O)(=O)Nc2cncc(Cl)c2O)cc1Br", "note": "[ABR-238901, 5-bromo-N-(5-chloro-4-hydroxypyridin-3-yl)-6-methoxypyridine-3-sulfonamide]", "values": [{"measurement": "Reduction of the number of macrophages having phagocytosed mCherry+ cardiomyocytes", "result": "approximately 50%"}, {"measurement": "mCherry mean fluorescent intensity (MFI) in MerTKhi and MerTKlo macrophages", "result": "did not affect"}]}]}
